Here are results for 15 compounds from patent US20230114241A1, “METHODS OF TREATING EPILEPSY USING THE SAME” (Trevena, Inc., priority 2019, published 2023).

The target in the first experiment is human sphingosine-1-phosphate receptor 1 (S1P1) (Homo sapiens, UniProt P21453). Kind of experiment: Inhibition of cAMP production (HTRF cAMP HiRange), S1P1 CHO-K1 cells. The note with it: inhibition of cAMP production, S1P1; read-out: hS1P1 CAMP pEC50 (converted). In kind it is cell-based. The gist of the method: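 Intracellular cAMP changes read by TR-FRET (HTRF HiRange, 1 h room temperature) after 30 min compound exposure at 37 °C. Cells: overnight-plated CHO-K1 stably expressing tagged human S1P1 with EA-β-arrestin2. Responses normalized to fingolimod.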
Sequence of human sphingosine-1-phosphate receptor 1 (S1P1) (P21453 whole entry): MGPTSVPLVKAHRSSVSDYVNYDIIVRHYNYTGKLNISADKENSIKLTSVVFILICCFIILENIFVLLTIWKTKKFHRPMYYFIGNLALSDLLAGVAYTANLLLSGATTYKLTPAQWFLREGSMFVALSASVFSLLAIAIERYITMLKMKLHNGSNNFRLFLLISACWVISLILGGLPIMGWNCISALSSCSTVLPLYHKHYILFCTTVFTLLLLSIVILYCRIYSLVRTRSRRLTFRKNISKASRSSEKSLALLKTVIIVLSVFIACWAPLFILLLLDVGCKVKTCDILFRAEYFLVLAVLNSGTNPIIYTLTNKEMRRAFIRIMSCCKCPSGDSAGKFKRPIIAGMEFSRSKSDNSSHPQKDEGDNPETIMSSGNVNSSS
As for `COc1cccnc1-c1nc(-c2ccc3c(c2)nnn3C(C)C)no1` [Compound 612, 3-(1-isopropyl-1H-benzo[d][1,2,3]triazol-5-yl)-5-(3-methoxy-pyridin-2-yl)-1,2,4-oxadiazole], the EC50 is below 316 nM.

As for `Cc1cccc2nc(-c3ccc4c(c3)nnn4C(C)C)oc12` [Compound 421, 2-(1-isopropyl-1H-benzo[d][1,2,3]triazol-5-yl)-7-methyl-benzo[d]oxazole], the EC50 was above 316 nM. The same measure, in the same setting: next, `Cc1ccc2oc(-c3ccc4c(c3)nnn4CC(C)C)nc2c1` [Compound 437, 2-(1-isobutyl-1H-benzo[d][1,2,3]triazol-5-yl)-5-methyl-benzo[d]oxazole]: below 316 nM; `COc1ccncc1-c1nc(-c2ccc3c(c2)nnn3C(C)C)no1` [Compound 605, 3-(1-isopropyl-1H-benzo[d][1,2,3]triazol-5-yl)-5-(4-methoxy-pyridin-3-yl)-1,2,4-oxadiazole]: below 316 nM; `N#Cc1cc(-c2nc(-c3ccc4sc(N)nc4c3)no2)ccc1NCC1CC1` [Compound 440, 5-(3-(2-aminobenzo[d]thiazol-5-yl)-1,2,4-oxadiazol-5-yl)-2-((cyclopropylmethyl)amino)benzonitrile]: below 316 nM. Same read-out and setting: then `COc1cccc2oc(-c3ccc4c(c3)nnn4C(C)C)nc12` [Compound 424, 2-(1-isopropyl-1H-benzo[d][1,2,3]triazol-5-yl)-4-methoxy-benzo[d]oxazole], with below 316 nM.

Staying with this experiment, now noted: inhibition of cAMP production; potency; read-out: hS1P1 CAMP pEC50 (converted).
Consider `CCC1(CC)CC(=O)c2cc(-c3nc(-c4ccnc(C)c4)no3)ccc2O1` [Compound 315, 2,2-diethyl-6-(3-(2-methylpyridin-4-yl)-1,2,4-oxadiazol-5-yl)chroman-4-one], for which the EC50 is below 316 nM. `C=CCNc1ccc(-c2nc(-c3ccc4c(c3)nnn4C(C)C)no2)cc1C#N` [Compound 150, 2-(allylamino)-5-(3-(1-isopropyl-1H-benzo[d][1,2,3]triazol-5-yl)-1,2,4-oxadiazol-5-yl)benzonitrile]: the EC50 was below 316 nM. `N#Cc1cc(-c2nc(-c3ccc4c(c3)CCC(=O)N4)no2)ccc1NCC(F)F` [Compound 344, 2-[(2,2-difluoroethyl)amino]-5-[3-(2-oxo-1,2,3,4-tetrahydroquinolin-6-yl)-1,2,4-oxadiazol-5-yl]benzonitrile]: the EC50 was below 316 nM. Same read-out and setting: then `FC(F)(F)c1cc(-c2noc(-c3ccc4c(c3)nnn4C3CC3)n2)ccc1OCc1ccccc1` [Compound 85, 5-{3-[4-(benzyloxy)-3-(trifluoromethyl)phenyl]-1,2,4-oxadiazol-5-yl}-1-cyclopropyl-1H-1,2,3-benzotriazole], with above 316 nM.

Regarding `COc1ccccc1-c1coc(-c2ccc3c(c2)nnn3C(C)C)n1` [Compound 277, 5-[4-(2-methoxy-phenyl)-1,3-oxazol-2-yl]-1-(propan-2-yl)-1H-1,2,3-benzotriazole], the EC50 is below 316 nM.

As to `COc1cccc(-c2nc(-c3ccc4c(c3)nnn4C3CCCC3)no2)c1` [Compound 130, 3-(1-cyclopentyl-1H-benzo[d][1,2,3]triazol-5-yl)-5-(3-methoxy-phenyl)-1,2,4-oxadiazole], the EC50 is above 316 nM.

On to `N#Cc1cc(-c2nc(-c3ccc4c(c3)CCC(=O)N4)no2)ccc1NCCF` [Compound 343, 2-[(2-fluoroethyl)amino]-5-[3-(2-oxo-1,2,3,4-tetrahydroquinolin-6-yl)-1,2,4-oxadiazol-5-yl]benzonitrile], for which the EC50 is below 316 nM.

As to `CCC1(CC)CC(=O)c2cc(-c3nc(-c4ccnc(F)c4)no3)ccc2O1` [Compound 146, 2,2-diethyl-6-(3-(2-fluoropyridin-4-yl)-1,2,4-oxadiazol-5-yl)chroman-4-one], the EC50 was below 316 nM. Same read-out and setting: next, `CCC1(CC)CC(=O)c2cc(-c3nc(-c4cnccc4OC)no3)ccc2O1` [Compound 303, 2,2-diethyl-6-(3-(4-methoxypyridin-3-yl)-1,2,4-oxadiazol-5-yl)chroman-4-one]: above 316 nM.
